Test results: patent US10913744B2, “LRRK2 inhibitors and methods of making and using the same” (Dana-Farber Cancer Institute, Inc., priority 2015, dated 2021)
Read-outs that look alike come from different tables or passages of the source.

Legend:
[1] = molecular target: PKCz (Homo sapiens (Human), UniProt Q05513); assay: Dundee profiling
[2] = molecular target: IRAK4 (Homo sapiens (Human), UniProt Q9NWZ3); assay: Dundee profiling
[3] = molecular target: EGFR (E746-A750del) (Homo sapiens (Human), UniProt P00533, DEL746-750); assay: KinomeScan; format: binding; details: 1 uM
[4] = molecular target: CLK2 (Homo sapiens (Human), UniProt P49760); assay: Dundee profiling
[5] = molecular target: MLK3 (Homo sapiens (Human), UniProt Q16584); assay: KinomeScan; format: binding; details: 1 uM
[6] = molecular target: TGFBR1 (Homo sapiens (Human), UniProt P36897); assay: Dundee profiling
[7] = molecular target: p38d MAPK (Homo sapiens (Human), UniProt O15264); assay: Dundee profiling
[8] = molecular target: DYRK2 (Homo sapiens (Human), UniProt Q92630); assay: Dundee profiling
[9] = molecular target: ROCK2 (Homo sapiens (Human), UniProt O75116); assay: Dundee profiling
[10] = molecular target: STK33 (Homo sapiens (Human), UniProt Q9BYT3); assay: Dundee profiling
[11] = molecular target: OSR1 (Homo sapiens (Human), UniProt O95747); assay: Dundee profiling
[12] = molecular target: MAP4K5 (Homo sapiens (Human), UniProt Q9Y4K4); assay: Dundee profiling
[13] = molecular target: SYK (Homo sapiens (Human), UniProt P43405); assay: KinomeScan; format: binding; details: 1 uM
[14] = molecular target: BTK (Homo sapiens (Human), UniProt Q06187); assay: KinomeScan; format: binding; details: 1 uM
[15] = system: PHK; assay: Dundee profiling
[16] = molecular target: EPH-B3 (Homo sapiens (Human), UniProt P54753); assay: Dundee profiling
[17] = molecular target: SIK2 (Homo sapiens (Human), UniProt Q9H0K1); assay: Dundee profiling
[18] = system: VEG-FR; assay: Dundee profiling
[19] = molecular target: JNK3 (Homo sapiens (Human), UniProt P53779); assay: Dundee profiling
[20] = molecular target: BRSK1 (Homo sapiens (Human), UniProt Q8TDC3); assay: Dundee profiling
[21] = molecular target: p38a MAPK (Homo sapiens (Human), UniProt Q16539); assay: Dundee profiling
[22] = molecular target: EPH-B4 (Homo sapiens (Human), UniProt P54760); assay: Dundee profiling
[23] = molecular target: CSK (Homo sapiens (Human), UniProt P41240); assay: KinomeScan; format: binding; details: 1 uM
[24] = molecular target: EGFR (L858R) (Homo sapiens (Human), UniProt P00533, L858R); assay: KinomeScan; format: binding; details: 1 uM
[25] = molecular target: DYRK3 (Homo sapiens (Human), UniProt O43781); assay: Dundee profiling
[26] = molecular target: EPHB2 (Homo sapiens (Human), UniProt P29323); assay: Dundee profiling
[27] = molecular target: MSK1 (Homo sapiens (Human), UniProt O75582); assay: Dundee profiling
[28] = molecular target: MARK2 (Homo sapiens (Human), UniProt Q7KZI7); assay: Dundee profiling
[29] = system: FLT3 (ITD); assay: KinomeScan; format: binding; details: 1 uM
[30] = molecular target: MKK1 (Homo sapiens (Human), UniProt Q02750); assay: Dundee profiling
[31] = molecular target: PAK5 (Homo sapiens (Human), UniProt Q9P286); assay: Dundee profiling
[32] = molecular target: TTBK2 (Homo sapiens (Human), UniProt Q6IQ55); assay: Dundee profiling
[33] = molecular target: EGFR (G719C) (Homo sapiens (Human), UniProt P00533, G719C); assay: KinomeScan; format: binding; details: 1 uM
[34] = molecular target: ARK5 (Homo sapiens (Human), UniProt O60285); assay: KinomeScan; format: binding; details: 1 uM
[35] = molecular target: MAPKAP-K3 (Homo sapiens (Human), UniProt Q16644); assay: Dundee profiling
[36] = read-out: percent remaining enzymatic activity, I1, 1 μM
[37] = read-out: percent remaining enzymatic activity, I10
[38] = read-out: percent remaining enzymatic activity

Chain of EPH-B4 (P54760 16-987, species assumed): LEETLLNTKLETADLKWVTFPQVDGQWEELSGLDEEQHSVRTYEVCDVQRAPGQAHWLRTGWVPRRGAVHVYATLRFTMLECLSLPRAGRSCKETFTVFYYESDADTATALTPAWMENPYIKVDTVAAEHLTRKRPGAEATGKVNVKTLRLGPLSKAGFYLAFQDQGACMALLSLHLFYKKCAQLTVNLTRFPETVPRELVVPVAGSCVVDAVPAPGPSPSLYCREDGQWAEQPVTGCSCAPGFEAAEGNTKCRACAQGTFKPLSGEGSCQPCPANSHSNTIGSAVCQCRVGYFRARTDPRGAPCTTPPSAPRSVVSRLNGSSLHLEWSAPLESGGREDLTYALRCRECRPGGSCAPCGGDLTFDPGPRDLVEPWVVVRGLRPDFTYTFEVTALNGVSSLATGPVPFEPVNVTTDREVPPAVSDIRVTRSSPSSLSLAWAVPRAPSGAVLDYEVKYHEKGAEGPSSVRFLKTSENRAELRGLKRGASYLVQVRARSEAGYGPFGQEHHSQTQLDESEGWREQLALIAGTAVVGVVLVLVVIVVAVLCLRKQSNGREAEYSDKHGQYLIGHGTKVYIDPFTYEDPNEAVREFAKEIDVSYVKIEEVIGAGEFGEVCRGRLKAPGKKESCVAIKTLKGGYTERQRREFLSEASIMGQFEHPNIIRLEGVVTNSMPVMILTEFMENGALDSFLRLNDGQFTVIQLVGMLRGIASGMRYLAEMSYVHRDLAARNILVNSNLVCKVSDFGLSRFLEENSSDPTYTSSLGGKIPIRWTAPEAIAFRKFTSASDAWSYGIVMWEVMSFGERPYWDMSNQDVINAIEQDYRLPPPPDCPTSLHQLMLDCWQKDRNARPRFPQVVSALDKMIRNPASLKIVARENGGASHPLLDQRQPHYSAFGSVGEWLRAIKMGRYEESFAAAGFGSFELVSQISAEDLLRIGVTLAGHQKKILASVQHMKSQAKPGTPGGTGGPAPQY
Chain of PKCz (Q05513 whole entry): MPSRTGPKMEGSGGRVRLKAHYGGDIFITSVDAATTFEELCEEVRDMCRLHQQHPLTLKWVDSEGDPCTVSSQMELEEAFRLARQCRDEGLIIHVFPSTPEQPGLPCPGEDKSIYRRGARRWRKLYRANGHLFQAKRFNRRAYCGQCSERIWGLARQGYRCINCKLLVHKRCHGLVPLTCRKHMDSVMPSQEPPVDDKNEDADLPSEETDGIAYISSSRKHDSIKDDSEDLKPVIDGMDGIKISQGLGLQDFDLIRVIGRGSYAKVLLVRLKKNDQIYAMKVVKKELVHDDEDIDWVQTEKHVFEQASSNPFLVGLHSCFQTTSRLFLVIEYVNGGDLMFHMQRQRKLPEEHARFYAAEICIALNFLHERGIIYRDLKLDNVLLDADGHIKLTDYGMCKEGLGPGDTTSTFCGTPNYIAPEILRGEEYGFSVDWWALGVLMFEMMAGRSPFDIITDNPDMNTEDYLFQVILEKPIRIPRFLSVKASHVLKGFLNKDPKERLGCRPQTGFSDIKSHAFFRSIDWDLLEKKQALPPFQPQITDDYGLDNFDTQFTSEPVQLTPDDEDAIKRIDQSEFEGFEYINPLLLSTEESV
Chain of EPH-B3 (P54753 34-998, species assumed): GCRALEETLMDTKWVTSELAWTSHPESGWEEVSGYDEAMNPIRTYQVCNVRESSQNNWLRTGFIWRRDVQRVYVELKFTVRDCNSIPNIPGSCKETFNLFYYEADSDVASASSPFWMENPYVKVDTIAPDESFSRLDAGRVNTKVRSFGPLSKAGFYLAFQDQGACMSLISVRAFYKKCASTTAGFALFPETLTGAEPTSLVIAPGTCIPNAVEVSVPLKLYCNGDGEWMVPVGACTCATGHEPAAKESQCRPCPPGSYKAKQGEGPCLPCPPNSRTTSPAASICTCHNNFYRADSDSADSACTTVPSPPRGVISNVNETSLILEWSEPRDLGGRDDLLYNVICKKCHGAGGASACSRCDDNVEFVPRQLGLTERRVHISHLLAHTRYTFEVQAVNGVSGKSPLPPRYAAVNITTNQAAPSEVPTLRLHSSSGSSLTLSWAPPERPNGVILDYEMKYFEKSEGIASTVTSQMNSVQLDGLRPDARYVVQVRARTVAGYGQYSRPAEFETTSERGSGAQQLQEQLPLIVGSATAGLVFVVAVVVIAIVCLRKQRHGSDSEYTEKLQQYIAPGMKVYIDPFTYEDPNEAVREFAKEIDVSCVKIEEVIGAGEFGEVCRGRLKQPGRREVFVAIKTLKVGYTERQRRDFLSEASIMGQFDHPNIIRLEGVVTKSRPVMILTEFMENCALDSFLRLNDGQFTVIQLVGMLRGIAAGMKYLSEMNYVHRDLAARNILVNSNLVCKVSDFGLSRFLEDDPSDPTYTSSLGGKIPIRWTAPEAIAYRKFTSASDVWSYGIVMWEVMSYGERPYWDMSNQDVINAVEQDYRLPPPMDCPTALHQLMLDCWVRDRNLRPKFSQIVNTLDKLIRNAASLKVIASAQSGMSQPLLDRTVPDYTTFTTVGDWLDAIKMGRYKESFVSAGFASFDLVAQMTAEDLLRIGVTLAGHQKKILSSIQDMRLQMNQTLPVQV
Chain of IRAK4 (Q9NWZ3 whole entry, looked up, species assumed): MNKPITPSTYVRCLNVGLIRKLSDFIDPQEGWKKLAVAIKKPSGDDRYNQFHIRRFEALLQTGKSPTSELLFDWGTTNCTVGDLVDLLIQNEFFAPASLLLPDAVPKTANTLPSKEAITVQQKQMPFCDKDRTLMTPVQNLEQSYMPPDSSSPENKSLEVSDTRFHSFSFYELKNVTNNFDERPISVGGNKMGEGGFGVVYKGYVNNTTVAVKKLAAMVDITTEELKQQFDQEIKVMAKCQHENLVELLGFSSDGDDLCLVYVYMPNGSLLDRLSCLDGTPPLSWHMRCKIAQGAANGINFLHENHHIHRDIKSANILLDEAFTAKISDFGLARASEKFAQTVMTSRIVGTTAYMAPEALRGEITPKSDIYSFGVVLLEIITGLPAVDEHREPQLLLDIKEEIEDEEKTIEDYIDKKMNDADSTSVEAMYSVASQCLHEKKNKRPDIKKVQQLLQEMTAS
Chain of MARK2 (Q7KZI7 whole entry, species assumed): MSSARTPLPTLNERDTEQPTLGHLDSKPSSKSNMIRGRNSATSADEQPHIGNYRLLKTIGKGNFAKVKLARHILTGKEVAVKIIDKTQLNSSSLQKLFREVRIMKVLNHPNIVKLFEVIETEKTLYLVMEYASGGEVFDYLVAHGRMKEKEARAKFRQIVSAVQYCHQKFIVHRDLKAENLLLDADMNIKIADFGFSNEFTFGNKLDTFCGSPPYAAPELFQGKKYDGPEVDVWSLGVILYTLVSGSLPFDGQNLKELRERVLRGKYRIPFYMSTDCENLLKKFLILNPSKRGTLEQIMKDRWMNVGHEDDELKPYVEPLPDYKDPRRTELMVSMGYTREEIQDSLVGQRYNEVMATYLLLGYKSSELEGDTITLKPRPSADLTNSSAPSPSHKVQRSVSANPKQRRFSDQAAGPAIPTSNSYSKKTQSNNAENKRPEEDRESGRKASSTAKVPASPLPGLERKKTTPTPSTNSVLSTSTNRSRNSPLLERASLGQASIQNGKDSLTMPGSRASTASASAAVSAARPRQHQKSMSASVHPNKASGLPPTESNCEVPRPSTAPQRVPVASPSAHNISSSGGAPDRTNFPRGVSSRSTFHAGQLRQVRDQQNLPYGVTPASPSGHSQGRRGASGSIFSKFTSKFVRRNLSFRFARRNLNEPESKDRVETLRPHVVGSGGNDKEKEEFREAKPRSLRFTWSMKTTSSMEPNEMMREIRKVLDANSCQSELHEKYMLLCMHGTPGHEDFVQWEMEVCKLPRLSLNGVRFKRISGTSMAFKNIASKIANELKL
Chain of DYRK3 (O43781 whole entry, species assumed): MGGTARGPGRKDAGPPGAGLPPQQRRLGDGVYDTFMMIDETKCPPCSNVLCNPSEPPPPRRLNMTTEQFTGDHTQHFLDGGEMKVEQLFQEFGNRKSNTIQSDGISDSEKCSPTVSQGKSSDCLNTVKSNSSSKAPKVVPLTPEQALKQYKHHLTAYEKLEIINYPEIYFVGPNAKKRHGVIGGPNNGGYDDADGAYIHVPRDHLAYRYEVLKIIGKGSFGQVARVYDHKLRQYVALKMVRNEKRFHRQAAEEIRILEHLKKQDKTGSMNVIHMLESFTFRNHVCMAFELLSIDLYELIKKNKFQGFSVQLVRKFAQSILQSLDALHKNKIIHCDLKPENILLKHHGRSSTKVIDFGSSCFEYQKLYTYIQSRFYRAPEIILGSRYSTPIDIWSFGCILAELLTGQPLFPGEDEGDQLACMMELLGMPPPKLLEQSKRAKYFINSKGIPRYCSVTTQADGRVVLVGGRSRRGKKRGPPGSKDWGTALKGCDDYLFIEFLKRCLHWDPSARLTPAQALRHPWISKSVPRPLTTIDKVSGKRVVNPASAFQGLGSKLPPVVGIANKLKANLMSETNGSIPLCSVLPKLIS
Chain of STK33 (Q9BYT3 whole entry, species assumed): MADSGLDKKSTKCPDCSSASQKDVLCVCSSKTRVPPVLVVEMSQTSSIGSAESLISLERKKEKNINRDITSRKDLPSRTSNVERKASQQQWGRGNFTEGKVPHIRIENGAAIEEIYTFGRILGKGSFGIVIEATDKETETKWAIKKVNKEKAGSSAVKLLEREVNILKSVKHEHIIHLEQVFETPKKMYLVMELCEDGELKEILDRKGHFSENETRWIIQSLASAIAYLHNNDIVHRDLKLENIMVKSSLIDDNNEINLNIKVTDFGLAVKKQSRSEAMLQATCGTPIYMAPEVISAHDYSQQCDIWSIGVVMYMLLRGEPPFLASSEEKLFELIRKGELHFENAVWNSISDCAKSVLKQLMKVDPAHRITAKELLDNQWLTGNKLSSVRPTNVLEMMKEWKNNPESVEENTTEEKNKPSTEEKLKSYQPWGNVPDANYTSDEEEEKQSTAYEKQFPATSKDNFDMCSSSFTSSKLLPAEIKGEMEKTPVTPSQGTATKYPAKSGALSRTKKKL

CNc1nc(Nc2ccc(C(=O)N3CCOCC3)cc2OC)nc2[nH]cc(Cl)c12 [Compound 18, (4-((5-chloro-4-(methylamino)-7H-pyrrolo[2,3-d]pyrimidin-2-yl)amino)-3-methoxyphenyl)(morpholino)methanone]
remaining activity at 1 µM [1, 36]: 76%
remaining activity at 1 µM [1, 37]: 94%
percent remaining enzymatic activity ([2]; I10): 82%
remaining activity at 1 µM [2, 38]: 95%
KinomeScan value [3]: 100
remaining activity at 1 µM [4, 36]: 13%
remaining activity at 1 µM [4, 37]: 2%
KinomeScan value [5]: 100
remaining activity at 1 µM [6, 36]: 128%
remaining activity at 1 µM [6, 37]: 119%
remaining activity at 1 µM [7, 36]: 107%
remaining activity at 1 µM [7, 37]: 102%
remaining activity at 1 µM [8, 36]: 67%
remaining activity at 1 µM [8, 37]: 18%
remaining activity at 1 µM [9, 36]: 113%
remaining activity at 1 µM [9, 37]: 101%
remaining activity at 1 µM [10, 36]: 22%
remaining activity at 1 µM [10, 37]: 15%
remaining activity at 1 µM [11, 36]: 61%
remaining activity at 1 µM [11, 37]: 12%
remaining activity at 1 µM [12, 36]: 110%
remaining activity at 1 µM [12, 37]: 92%
KinomeScan value [13]: 80
KinomeScan value [14]: 100
percent remaining enzymatic activity ([15]; I1, 1 μM): 13%
percent remaining enzymatic activity ([15]; I10): 1%
percent remaining enzymatic activity ([16]; I1, 1 μM): 92%
remaining activity at 1 µM [16, 38]: 92%
remaining activity at 1 µM [17, 36]: 109%
remaining activity at 1 µM [17, 37]: 92%
percent remaining enzymatic activity ([18]; I1, 1 μM): 104%
percent remaining enzymatic activity ([18]; I10): 100%
percent remaining enzymatic activity ([19]; I10): 9%
remaining activity at 1 µM [19, 38]: 29%
remaining activity at 1 µM [20, 36]: 94%
remaining activity at 1 µM [20, 37]: 98%
percent remaining enzymatic activity ([21]; I10): 104%
remaining activity at 1 µM [21, 38]: 90%
remaining activity at 1 µM [22, 36]: 80%
remaining activity at 1 µM [22, 37]: 86%
KinomeScan value [23]: 100
KinomeScan value [24]: 83
remaining activity at 1 µM [25, 36]: 74%
remaining activity at 1 µM [25, 37]: 30%
percent remaining enzymatic activity ([26]; I10): 58%
remaining activity at 1 µM [26, 38]: 60%
remaining activity at 1 µM [27, 36]: 109%
remaining activity at 1 µM [27, 37]: 99%
remaining activity at 1 µM [28, 36]: 101%
remaining activity at 1 µM [28, 37]: 82%
KinomeScan value [29]: 94
remaining activity at 1 µM [30, 36]: 91%
remaining activity at 1 µM [30, 37]: 56%
remaining activity at 1 µM [31, 36]: 89%
remaining activity at 1 µM [31, 37]: 70%
percent remaining enzymatic activity ([32]; I10): 90%
remaining activity at 1 µM [32, 38]: 105%
KinomeScan value [33]: 91
KinomeScan value [34]: 89
remaining activity at 1 µM [35, 36]: 97%
remaining activity at 1 µM [35, 37]: 84%
